From PubChem BioAssay (NCI)
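1) Cells in 96-well plates. 2) Compound, 48 h, 5 concentrations. 3) Linear interpolation between surrounding doses. 4) Unreached endpoint = highest concentration. GI50 is the concentration that inhibits growth by half. The concentration for full growth arrest is given as TGI.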

Key:
Assay in all cases: inhibition of tumour cell growth, NCI panel, 48 h
A549 NSCLC = tested on: A549 NSCLC
SF-268 CNS = tested on: SF-268 CNS
CAKI-1 renal = tested on: CAKI-1 renal
U251 CNS = tested on: U251 CNS
HCC-2998 colon = tested on: HCC-2998 colon
OVCAR-4 ovarian = tested on: OVCAR-4 ovarian
SK-OV-3 ovarian = tested on: SK-OV-3 ovarian
NCI-H23 lung = tested on: NCI-H23 lung
CCRF-CEM leukemia = tested on: CCRF-CEM leukemia
A498 renal = tested on: A498 renal

Row | Structure (SMILES) | GI50 (A549 NSCLC) [nM] | TGI (A549 NSCLC) [µM] | GI50 (SF-268 CNS) [nM] | TGI (SF-268 CNS) [µM] | GI50 (CAKI-1 renal) [nM] | TGI (CAKI-1 renal) [µM] | GI50 (U251 CNS) [nM] | TGI (U251 CNS) [µM] | GI50 (HCC-2998 colon) [nM] | TGI (HCC-2998 colon) [µM] | GI50 (OVCAR-4 ovarian) [nM] | TGI (OVCAR-4 ovarian) [µM] | GI50 (SK-OV-3 ovarian) [nM] | TGI (SK-OV-3 ovarian) [µM] | GI50 (NCI-H23 lung) [nM] | TGI (NCI-H23 lung) [µM] | GI50 (CCRF-CEM leukemia) [nM] | TGI (CCRF-CEM leukemia) [µM] | GI50 (A498 renal) [nM] | TGI (A498 renal) [µM]
1 | CNC(=O)c1c(NC(=O)c2cccc(C(F)(F)F)c2)sc2c1CCC(=O)C2 | 387 | > 34.3 | 486 | > 100 | 282 | 1.22 | 259 | 2.73 | 656 | 2.52 | 389 | 1.44 | 2220 | 8.24 | 318 | 7.56 | 113 | 1.49 | 1670 | 5.71
2 | CCNc1c(C(=O)N(CC)CC)c(=O)[nH]c2ncccc12 | – | > 100 | – | > 100 | – | > 100 | – | > 100 | – | > 100 | – | > 100 | – | > 100 | – | > 100 | – | > 100 | – | > 100
3 | CS(=O)(=O)OCCN1CCN(C(=O)c2cccc3c(Nc4ccc(S(N)(=O)=O)cc4)c4ccccc4nc23)CC1 | – | > 100 | – | > 100 | – | > 100 | – | > 100 | – | > 100 | – | > 100 | – | > 100 | – | > 100 | – | > 63 | – | > 100
4 | O=C(O)CNS(=O)(=O)c1ccc(NC(=O)c2ccc(F)cc2)cc1 | – | > 100 | – | > 100 | – | > 100 | – | > 100 | – | > 100 | – | > 100 | – | > 100 | – | > 100 | – | > 100 | – | > 100
5 | COC(=O)c1ccccc1C#CCCCOS(C)(=O)=O | – | > 10 | – | > 10 | – | > 10 | – | > 10 | – | > 10 | – | > 10 | – | > 10 | – | > 10 | – | > 10 | – | > 10
6 | O=S1(=O)N(Cc2ccccc2)[C@@H](Cc2ccccc2)C2O[C@H]2[C@H](Cc2ccccc2)N1Cc1ccccc1 (stereo not given in full) | 3780 | > 7.5 | 6080 | > 7.5 | 949 | > 7.5 | 1840 | > 7.5 | > 7500 | > 7.5 | > 7500 | > 7.5 | > 7500 | > 7.5 | 3470 | > 7.5 | > 7500 | > 7.5 | > 7500 | > 7.5
7 | COc1ccc(C(O)c2cc3c(N)c(C(=O)Nc4cccc(Cl)c4C)sc3nc2C)cc1 (stereo not given) | 933 | 2.02 | 808 | 1.68 | 689 | 1.38 | 797 | 1.57 | 444 | 1.16 | 782 | 2 | 988 | 2.09 | 926 | 1.8 | 733 | 1.93 | 761 | 1.63
8 | NS(=O)(=O)c1ccc(C2C3=C(CCCC3=O)OC3=C2C(=O)c2ccccc2C3=O)cc1 (stereo not given) | 1420 | 3.53 | 386 | 1.66 | 1740 | 3.2 | 318 | 1.05 | 1470 | 3.11 | 190 | 0.824 | 1990 | 3.76 | 198 | 1.15 | 383 | 2.09 | 1280 | 2.57
9 | C=C1C(=O)O[C@H]2[C@H]1CC/C(CNC(=O)/C=C/c1cccc(OC)c1)=C\CC[C@@]1(C)O[C@@H]21 | 5110 | 20.3 | 2290 | 6.69 | 1310 | 2.68 | 1580 | 3.11 | 1830 | 3.31 | 1690 | 4.79 | 11200 | 23.3 | 1670 | 3.35 | 419 | 5.29 | 1820 | 5.85
10 | OCc1cccc(-c2ccc3ncc(-c4nc(NC5CC5)ncc4F)n3c2)c1 | 341 | > 100 | 275 | 0.801 | 153 | 1.65 | 250 | > 100 | 333 | 2.17 | 342 | 1.77 | 448 | 7.06 | 281 | 1.19 | 249 | 2.69 | 152 | 0.367
11 | N#Cc1c2ccccc2c2n1-c1ccccc1OC(c1ccccc1)C2=O (stereo not given) | 3110 | 29.3 | 3730 | 19.7 | 3160 | 13.7 | 3170 | 15.7 | 15500 | 85.8 | 2430 | 8.44 | 6030 | 48.6 | 2950 | 15 | 2660 | 10.9 | 1840 | 6.89
